Experimental data taken from article PMC11641365, “Evaluation of In Vitro Biological Activity of Flavanone/Chromanone Derivatives: Molecular Analysis of Anticancer Mechanisms in Colorectal Cancer” (International Journal of Molecular Sciences, 2024).

Experiments:
[1] = tested on: HCT 116; experiment: MTT cell viability assay; assay type: cell-based; settings: Homo sapiens, 24 h incubation with compound, mean ± SD of three experiments, read-out: Cytotoxic effect, IC50
Description: The cytotoxic activity of the 3-benzylideneflavanones, 3-benzylidenechromanones derivatives (compounds 1, 2, 3, 4, 5) and 5′-(3-methoxyphenyl)-2-phenyl-4′,5′-dihydro-4H-spiro[chromano-3,3′-pirazol]-4-one (compound 3a) was evaluated using the MTT assay (4,5-dimethylthiazol-2-yl)-2,5-diphenyltetrazoliumbromide), a colorimetric method that quantifies cell viability.
Cell viability was determined using the metabolic microplate spectrophotometric assay with Methylthiazolyl diphenyltetrazolium bromide (MTT) (Sigma-Aldrich; St. Louis, MO, USA). The MTT method belongs to metabolic tests for determining cell viability and consists of measuring the absorbance of a violet solution of formazan, a product of the reduction of a water-soluble yellow MTT by oxidoreductive enzymes (mainly mitochondrial succinate dehydrogenase) of living cells. The amount of the reaction product (water-insoluble formazan crystals) is proportional to the number of living and metabolically active cells in the sample. In the case of damaged or dead cells, formazan is formed in smaller amounts, or it is not formed.
The appropriate number of cells for a given cell line (6–8 × 10^3 cells/mL) were seeded onto colorless, sterile 96-well microplates (Nunc, Roskilde, Denmark) in the number appropriate for a given cell line. After 24 h of culture, various concentrations of the studied compounds (10^−7–10^−5 M) freshly prepared in DMSO (final concentration DMS < 0.1%) and diluted with complete culture medium were added and incubated in a CO2 incubator for 24 h. After this time, the medium was removed; the cell monolayer was washed twice with sterile PBS solution; and fresh culture medium was added to the microplate wells. After 48 h of cell culture, the MTT test was performed. A volume of 50 μL of tetrazolium salt solution (final concentration 0.05 mg/mL) was added to each microplate well. The microplate was placed for 3–4 h (depending on the cell line) in a CO2 incubator. After incubation, 100 μL of DMSO was added to the wells of the microplate to dissolve the purple formazan crystals formed in the living cell environment. The absorbance of the formazan solution, after gentle mixing, was read at a wavelength of λ = 580 nm and a reference wavelength of λ = 720 nm (Biotek Power Wave HT, Biotek Instruments, Winooski, VT, USA). The percentage of living cells was calculated by comparing the absorbance value of the tested samples with the absorbance value of the control (cells not treated with compounds). The absorbance of the control was taken as 100%.

[2] = tested on: LoVo; experiment: MTT test after pre-incubation with antioxidants NAC or Trolox; assay type: cell-based, human; settings: vs cells without antioxidant pre-incubation
Description: Moreover, the elevation of ROS levels was accompanied by a decrease in intracellular GSH. To investigate the role of ROS in the cytotoxic activity of flavonoid derivatives against cancer cells, LoVo cancer cells were pre-treated with antioxidants, NAC or a water-soluble derivative of vitamin E (Trolox), for 1 h before exposure to the studied compounds. Subsequently, the MTT assay was performed.
To elucidate the involvement of ROS in the cytotoxic effects of the investigated compounds, cells were pre-treated with the vitamin E (Trolox, Sigma-Aldrich, St. Louis, MO, USA) or N-Acetylcysteine (NAC) antioxidants for 1 h. Cells were seeded into sterile, colorless 96-well microplates at a density of 6–8 × 10^3 cells/mL, contingent upon the cell line. Following a 24 h culture period, Trolox or NAC was added at a final concentration of 50 μM and 3 mM, respectively. After 1 h of incubation, the antioxidants were removed by washing, and test compounds were administered at appropriate concentrations (10–200 μM) in fresh cell culture medium, followed by a 24 h incubation. The MTT assay was then conducted under identical experimental conditions, as detailed in Section 2.2.

[3] = tested on: HT-29; experiment: Cell cycle analysis via flow cytometry (propidium iodide); assay type: cell-based, human; settings: compound at IC50, 24 h, vs control
Description: The most commonly used fluorescent dyes for cell cycle analysis are fluorochromes that penetrate the cell membrane into the interior of permeabilized cells and bind stoichiometrically to DNA via intercalation, e.g., DAPI, propidium iodide (PI). The analysis is performed on cells fixed in ethanol. In this work, the cell cycle analysis was performed using the method described by Darzynkiewicz and Juan.
Cells (10 × 10^3) were seeded in 35 mm dishes and cultured in the medium for 24 h to attain the logarithmic growth phase. […] Subsequently, cells were trypsinized and centrifuged for 10 min at 400× g at 4 °C. The cell suspension in 100 μL of PBS was fixed in 1 mL of 70% ethanol (−20 °C) and stored at this temperature until analysis. Immediately before analysis, the ethanol-fixed cell suspension was centrifuged at 10,000 rpm for 10 min at 4 °C. The pellet was washed with cold (4 °C) PBS to remove residual ethanol, and the cell suspension was centrifuged again under the same conditions. A volume of 300 μL of PBS containing 4 mg/mL propidium iodide (final concentration 75 μM) and 1 mg/mL RNAse A (final concentration 20 μg/mL) was added to the cell pellet and incubated for at least 30 min at 37 °C in the dark. Stained cells were analyzed using a flow cytometer (Becton Dickinson, Franklin Lakes, NJ, USA), counting 10,000 cells in each sample. Data were analyzed using FlowJo 10.10 software (FlowJo, Williamson Way Ashland, OR, USA).

[4] = tested on: HT-29; experiment: Intracellular GSH level, monochlorobimane (MCB) probe; assay type: cell-based, human; settings: compound at IC50, 24 h, vs control
Description: The spectrofluorimetric method with monochlorobimane (MCB; Sigma-Aldrich; St. Louis, MO, USA) was used to determine GSH. Monochlorobimane reacts with glutathione in a reaction catalyzed by cellular glutathione S-transferase. The reaction produces a fluorescent bimane-glutathione conjugate (GSH-MCB). A major advantage of MCB is its ability to penetrate the cell membrane, which is why it is used as a probe to determine the amount of GSH in living cells.
Cells were seeded in black 96-well fluorometric microplates at a density of 10 × 10^3 cells/mL. […] Following compound incubation, the medium was removed, and the cell monolayers were washed twice with HBSS (140 mM NaCl, 5 mM KCl, 0.8 mM MgCl2, 1.8 mM CaCl2, 1 mM Na2HPO4, 10 mM HEPES, and 1% glucose). A solution of MCB at a final concentration of 40 μM was added to each well and incubated in a CO2 cell culture incubator at 37 °C for 20 min. A 40 mM MCB stock solution was prepared by dissolving 9 mg of the reagent in 1 mL of absolute ethanol. Fluorescence was measured using a Perkin-Elmer LS-5B spectrofluorometer (Waltham, MA, USA) at the following excitation and fluorescence emission wavelengths: λex = 380 nm/λem = 470 nm. After incubation with MCB, the cells were lysed with 50 μL of lysis buffer (10 mM TRIS-HCl; pH 8 containing 0.1% Triton X-100). In order to normalize the number of cells in individual samples, the amount of DNA was determined by adding 50 μL of ethidium bromide (EB, final concentration 0.2 mM) to each well after measuring the MCB fluorescence and measuring the EB fluorescence at an excitation wavelength of λex = 530 nm and an emission wavelength of λem = 590 nm. The results obtained using the standard curve were converted to nM of GSH.

| SMILES | IC50 [1] | Change of the IC50 value after pre-incubation with Trolox [2] | Increase in the G2/M phase cell percentage [3] | Decrease in GSH levels [4] |
| --- | --- | --- | --- | --- |
| COc1cccc(/C=C2/C(=O)c3ccccc3OC2c2ccccc2)c1 (centres unmarked) [Compound 3] | 18.6 ± 1.4 µM | Statistically significant increases in the IC50 value | – | – |
| O=C1/C(=C/c2ccccc2)COc2ccccc21 [Compound 1] | 10.1 ± 1.3 µM | – | 25% | 25–30% |
| O=C1/C(=C/c2ccccc2)C(c2ccccc2)Oc2ccccc21 (centres unmarked) [Compound 5] | – | Statistically significant increases in the IC50 value | 25% | 25–30% |
